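Assay format: 96-well plates, 48-hour exposure. Here, GI50 denotes the concentration required for 50% inhibition of growth.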 Active and inactive are the calls of the source. Cut-off read from the data, not from the text of the source: active = GI50 up to about 1.1 µM and inactive = higher.
Key:
Assay in all cases: inhibition of tumour cell growth, NCI panel, 48 h
[1] = test system: 786-0
[2] = test system: A498
[3] = test system: A549
[4] = test system: CAKI-1
[5] = test system: CCRF-CEM
[6] = test system: COLO 205
[7] = test system: DLD-1
[8] = test system: DMS-114
[9] = test system: DMS-273
[10] = test system: EKVX
[11] = test system: HCC 2998
[12] = test system: HCT-116
[13] = test system: HCT-15
[14] = test system: HL-60
[15] = test system: HOP-18
[16] = test system: HOP-62
[17] = test system: HOP-92
[18] = test system: HT-29
[19] = test system: IGROV-1
[20] = test system: K562
[21] = test system: KM-20L2
[22] = test system: KM12
[23] = test system: LOX IMVI
[24] = test system: LXFL 529
[25] = test system: M14
[26] = test system: M19-MEL
[27] = test system: MOLT-4
[28] = test system: Malme-3M
[29] = test system: NCI-H226
[30] = test system: NCI-H23
[31] = test system: NCI-H460
[32] = test system: NCI-H522
[33] = test system: OVCAR-3
[34] = test system: OVCAR-4
[35] = test system: OVCAR-5
[36] = test system: OVCAR-8
[37] = test system: RPMI-8226
[38] = test system: RXF 393
[39] = test system: RXF 631
[40] = test system: SF-268
[41] = test system: SF-295
[42] = test system: SF-539
[43] = test system: SK-MEL-28
[44] = test system: SK-MEL-2
[45] = test system: SK-MEL-5
[46] = test system: SK-OV-3
[47] = test system: SN12C
[48] = test system: SNB-19
[49] = test system: SNB-78
[50] = test system: SR
[51] = test system: SW-620
[52] = test system: TK-10
[53] = test system: U-251
[54] = test system: UACC-257
[55] = test system: UACC-62
[56] = test system: UO-31
[57] = test system: ACHN
[58] = test system: SNB-75

O=C(CC(=O)c1cccc([N+](=O)[O-])c1)C(=O)Nc1nc([N+](=O)[O-])cs1
GI50 [1]: > 100 µM (inactive)
GI50 [2]: > 100 µM (inactive)
GI50 [3]: > 100 µM (inactive)
GI50 [4]: 83.8 µM (inactive)
GI50 [5]: 47.8 µM (inactive)
GI50 [6]: > 100 µM (inactive)
GI50 [7]: > 100 µM (inactive)
GI50 [8]: > 100 µM (inactive)
GI50 [9]: > 100 µM (inactive)
GI50 [10]: > 100 µM (inactive)
GI50 [11]: > 100 µM (inactive)
GI50 [12]: > 100 µM (inactive)
GI50 [13]: 79.6 µM
GI50 [14]: > 100 µM (inactive)
GI50 [15]: > 100 µM (inactive)
GI50 [16]: > 100 µM (inactive)
GI50 [17]: > 100 µM (inactive)
GI50 [18]: > 100 µM (inactive)
GI50 [19]: > 100 µM (inactive)
GI50 [20]: 94.8 µM (inactive)
GI50 [21]: > 100 µM (inactive)
GI50 [22]: > 100 µM (inactive)
GI50 [23]: > 100 µM (inactive)
GI50 [24]: 60.1 µM (inactive)
GI50 [25]: > 100 µM (inactive)
GI50 [26]: > 100 µM (inactive)
GI50 [27]: > 100 µM (inactive)
GI50 [28]: > 100 µM (inactive)
GI50 [29]: > 100 µM (inactive)
GI50 [30]: > 100 µM (inactive)
GI50 [31]: > 100 µM (inactive)
GI50 [32]: 33.3 µM (inactive)
GI50 [33]: > 100 µM (inactive)
GI50 [34]: 0.0307 µM (active)
GI50 [35]: > 100 µM (inactive)
GI50 [36]: > 100 µM (inactive)
GI50 [37]: 65 µM (inactive)
GI50 [38]: > 100 µM (inactive)
GI50 [39]: > 100 µM (inactive)
GI50 [40]: > 100 µM (inactive)
GI50 [41]: > 100 µM (inactive)
GI50 [42]: > 100 µM (inactive)
GI50 [43]: > 100 µM (inactive)
GI50 [44]: > 100 µM (inactive)
GI50 [45]: > 100 µM (inactive)
GI50 [46]: > 100 µM (inactive)
GI50 [47]: > 100 µM (inactive)
GI50 [48]: > 100 µM (inactive)
GI50 [49]: > 100 µM (inactive)
GI50 [50]: 83 µM (inactive)
GI50 [51]: > 100 µM (inactive)
GI50 [52]: > 100 µM (inactive)
GI50 [53]: > 100 µM (inactive)
GI50 [54]: > 100 µM (inactive)
GI50 [55]: > 100 µM (inactive)
GI50 [56]: > 100 µM (inactive)

O=C1OC(=O)C([Se]c2ccccc2)=C1[Se]c1ccccc1
GI50 [1]: > 100 µM (inactive)
GI50 [2]: > 100 µM (inactive)
GI50 [3]: > 100 µM (inactive)
GI50 [57]: > 100 µM (inactive)
GI50 [4]: > 100 µM (inactive)
GI50 [5]: > 100 µM (inactive)
GI50 [6]: > 100 µM (inactive)
GI50 [7]: > 100 µM (inactive)
GI50 [8]: > 100 µM (inactive)
GI50 [10]: > 100 µM (inactive)
GI50 [12]: > 100 µM (inactive)
GI50 [13]: > 100 µM
GI50 [14]: > 100 µM (inactive)
GI50 [15]: > 100 µM (inactive)
GI50 [16]: > 100 µM (inactive)
GI50 [17]: 70.1 µM (inactive)
GI50 [18]: 44.9 µM (inactive)
GI50 [19]: > 100 µM (inactive)
GI50 [20]: > 100 µM (inactive)
GI50 [21]: > 100 µM (inactive)
GI50 [23]: > 100 µM (inactive)
GI50 [24]: > 100 µM (inactive)
GI50 [25]: > 100 µM (inactive)
GI50 [27]: > 100 µM (inactive)
GI50 [28]: > 100 µM (inactive)
GI50 [29]: > 100 µM (inactive)
GI50 [30]: 32.4 µM (inactive)
GI50 [31]: > 100 µM (inactive)
GI50 [32]: > 100 µM (inactive)
GI50 [33]: > 100 µM (inactive)
GI50 [34]: > 100 µM (inactive)
GI50 [35]: > 100 µM (inactive)
GI50 [36]: > 100 µM (inactive)
GI50 [37]: > 100 µM (inactive)
GI50 [38]: > 100 µM (inactive)
GI50 [39]: > 100 µM (inactive)
GI50 [40]: > 100 µM (inactive)
GI50 [41]: > 100 µM (inactive)
GI50 [42]: > 100 µM (inactive)
GI50 [43]: > 100 µM (inactive)
GI50 [45]: > 100 µM (inactive)
GI50 [46]: > 100 µM (inactive)
GI50 [47]: > 100 µM (inactive)
GI50 [48]: > 100 µM (inactive)
GI50 [58]: > 100 µM (inactive)
GI50 [49]: > 100 µM (inactive)
GI50 [50]: > 100 µM (inactive)
GI50 [51]: > 100 µM (inactive)
GI50 [52]: > 100 µM (inactive)
GI50 [53]: > 100 µM (inactive)
GI50 [54]: > 100 µM (inactive)
GI50 [55]: > 100 µM (inactive)
